According to patent US6395711B1, “Macrolides with antitumor activity” (priority 1997, dated 2002):
Values after ≈ are worked out from the molar mass of the structure shown. “Also recorded” adds a separate entry of the source. Read-outs that look alike come from different tables or passages of the source.

Columns and labels:
[1] = test system: P-388 (suspension culture of a lymphoid neoplasm from DBA/2 mouse); test: In vitro antitumor activity, P-388 cells; format: cell-based; details: for IC50: Mus musculus, P388, 72 h, read-out: IC50 P-388
Text: (§1) The antitumor activity has been deteced in vitro by culturing the tumor cells following the methodology described by Bergeron, et al.(2), and by Schroeder, et al. (6). Activity against several human tumors as leukaemia, colon carcinoma, NSC lung carcinoma, melanoma, and the like has been observed.
(§2) Biological activity: the antitumor cells employed have been P-388 (suspension culture of a lymphoid neoplasm from DBA/2 mouse), A-549 (monolayer culture of a human macrocytic lung carcinoma, HT-29 (monolayer culture of a human colon carcinoma), and MEL-28 (monolayer culture of a human melanoma), and the other indicated cell lines.
(§3) P-388 cells were seeded into 16 mm wells at 1×10^4 cells per well in 1 ml aliquots of MEM 5FCS containing the indicated concentration of drug. A separate set of cultures without drug were seeded as control of growth to ensure that cells remained in exponential phase of growth. All determinations were carried out duplicated. After three days of incubation at 37° in 10% CO2 atmosphere with 98% humidity, the wells were stained with 0.1% Crystal Violet. The IC50 was calculated by comparing the growth in wells with drug with the growth in control wells without the drug.
(§4) In Table 5 are presented the activity expressed as IC50 in mcg/ml

[2] = test system: P388MDR; test: In vitro antitumor activity, P388MDR cells; format: cell-based, murine
Text: as §1, §2, §3, §4

[3] = test system: A-549 (monolayer culture of a human macrocytic lung carcinoma); test: In vitro antitumor activity, A-549 cells; format: cell-based
Text: as §1, §2, §3, §4

[4] = test system: HT-29 (monolayer culture of a human colon carcinoma); test: In vitro antitumor activity, HT-29 cells; format: cell-based
Text: as §1, §2, §3, §4

[5] = test system: MEL-28 (monolayer culture of a human melanoma); test: In vitro antitumor activity, MEL-28 cells; format: cell-based
Text: as §1, §2, §3, §4

[6] = test system: CV1; test: In vitro activity, CV1 cells; format: cell-based; details: Cercopithecidae, CV-1
Text: as §1, §2, §3, §4

[7] = test system: several mammalian cancer cell lines; test: In vitro antitumor activity, several mammalian cancer cell lines; format: cell-based
Text: as §1

[8] = three days of incubation, Crystal Violet

| Structure (SMILES) | IC50 P-388 [1, 8] | IC50 P388MDR [2] | IC50 A-549 [3] | IC50 HT-29 [4] | IC50 MEL-28 [5] | other results |
| --- | --- | --- | --- | --- | --- | --- |
| COc1cc([C@@H]2c3cc4c(cc3[C@@H](O[C@@H]3O[C@@H]5CO[C@@H](C)O[C@H]5[C@H](O)[C@H]3O)[C@H]3COC(=O)[C@H]23)OCO4)cc(OC)c1O [etopoxide] | 0.1 µg/mL (≈ 0.17 µM) | 10 µg/mL (≈ 17 µM) | 0.1 µg/mL (≈ 0.17 µM) | 1 µg/mL (≈ 1.7 µM) | 0.5 µg/mL (≈ 0.85 µM) | – |
| N.N.[Cl][Pt][Cl] [cis-platin] | 2.5 µg/mL | 2.5 µg/mL | 2.5 µg/mL | 5 µg/mL | 2.5 µg/mL | – |
| CC(=O)O[C@H]1C(=O)[C@@]2(C)[C@H]([C@H](OC(=O)c3ccccc3)[C@]3(O)C[C@H](OC(=O)[C@H](O)[C@@H](NC(=O)c4ccccc4)c4ccccc4)C(C)=C1C3(C)C)[C@]1(OC(C)=O)CO[C@@H]1C[C@@H]2O [taxol] | – | – | – | – | – | IC50 [1]: 0.2 µg/mL (≈ 0.234 µM); IC50 ([2]; Mus musculus): > 2 µg/mL; IC50 ([3]; Homo sapiens, A549, read-out: IC50 A-549): 0.002 µg/mL (≈ 0.00234 µM); IC50 ([4]; Homo sapiens, HT-29, read-out: IC50 HT-29): 0.002 µg/mL (≈ 0.00234 µM); IC50 ([5]; Homo sapiens, SK-MEL-28, read-out: IC50 MEL-28): 0.002 µg/mL (≈ 0.00234 µM) |
| COc1cccc2c1C(=O)c1c(O)c3c(c(O)c1C2=O)C[C@@](O)(C(=O)CO)C[C@@H]3O[C@H]1C[C@H](N)[C@H](O)[C@H](C)O1 [adriamicin] | 0.02 µg/mL (≈ 0.0368 µM) | 1 µg/mL (≈ 1.84 µM) | 0.002 µg/mL (≈ 0.00368 µM) | 0.05 µg/mL (≈ 0.092 µM) | 0.02 µg/mL (≈ 0.0368 µM) | – |
| CCCC1(O)C(O)C(C)C/C=C/C=C/C(CC(C)O)CCC2OC3(CCC(C)C(C(C)C(O)CC)O3)C(C)C(OC(=O)/C=C/C(C)C(O)C(C)C(O)C(O)C(O)C(O)C1O)C2C (centres unmarked) [IB-96212B] | – | – | – | – | – | IC50 [1, 8]: 0.001 µg/mL (≈ 0.00113 µM); IC50 ([3]; Homo sapiens, A549; read-out: IC50 A-549): 1 µg/mL (≈ 1.13 µM); IC50 ([4]; Homo sapiens, HT-29; read-out: IC50 HT-29): 1.2 µg/mL (≈ 1.36 µM); IC50 ([5]; Homo sapiens, SK-MEL-28; read-out: IC50 MEL-28): 1 µg/mL (≈ 1.13 µM); IC50 [6]: 0.001 µg/mL (≈ 0.00113 µM); antitumor activity against several mammalian cancer cell lines (in words) [7]: activity comparable to the parent IB-96212; also recorded: good antitumor actvity |
